Source: PubChem BioAssay (NCI)
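Where inhibition never reached the appropriate level, the endpoint shown equals the highest concentration tested. Otherwise, values were interpolated linearly from a five-concentration, 48-hour dose response in 96-well plates. GI50 is the concentration that inhibits growth by half. TGI is the concentration that stops growth completely.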

Assays:
Test in all cases: DTP human tumour cell line panel, 48 h
HL-60(TB) leukemia = system: HL-60(TB) leukemia
KM12 colon = system: KM12 colon
HOP-62 NSCLC = system: HOP-62 NSCLC
SF-539 CNS = system: SF-539 CNS
HCT-15 colon = system: HCT-15 colon
OVCAR-3 ovarian = system: OVCAR-3 ovarian
K-562 leukemia = system: K-562 leukemia
HCT-116 colon = system: HCT-116 colon
HOP-92 NSCLC = system: HOP-92 NSCLC
NCI/ADR-RES ovarian = system: NCI/ADR-RES ovarian

In the case of `COc1cc(C(=O)C/C(CCC(=O)Nc2ccccc2[N+](=O)[O-])=N\NC(=O)CC#N)ccc1O`, the TGI (HL-60(TB) leukemia) is reported as greater than 100 µM, the TGI (KM12 colon) is reported as greater than 100 µM and the TGI (HOP-62 NSCLC) is reported as greater than 100 µM. For the same compound, the TGI (SF-539 CNS) was greater than 100 µM, the TGI (HCT-15 colon) was greater than 100 µM and the TGI (OVCAR-3 ovarian) was greater than 100 µM. For the same compound, the TGI (K-562 leukemia) was greater than 100 µM.

`CN(C)c1ccc(C=C2C(=O)OC(C)(C)OC2=O)cc1Br` was tested, and the TGI (HL-60(TB) leukemia) was greater than 100 µM, the TGI (KM12 colon) was greater than 100 µM and the TGI (HCT-116 colon) was greater than 100 µM. The TGI (HOP-62 NSCLC) was greater than 100 µM, the TGI (SF-539 CNS) was greater than 100 µM and the TGI (HOP-92 NSCLC) was greater than 100 µM. It also gave a TGI (OVCAR-3 ovarian) greater than 100 µM and a TGI (K-562 leukemia) greater than 100 µM.

`COC1CC(OS(=O)(=O)c2ccc(C)cc2)C(OC(=O)c2ccccc2)C(C)O1` (centres undefined) showed a GI50 (HL-60(TB) leukemia) greater than 100 µM, a TGI (HL-60(TB) leukemia) greater than 100 µM and a GI50 (KM12 colon) greater than 100 µM. The TGI (KM12 colon) was greater than 100 µM, the TGI (HCT-116 colon) was greater than 10 µM and the GI50 (HOP-62 NSCLC) was greater than 100 µM. The TGI (HOP-62 NSCLC) was greater than 100 µM, the GI50 (SF-539 CNS) was greater than 100 µM and the TGI (SF-539 CNS) was greater than 100 µM. The GI50 (HCT-15 colon) was greater than 100 µM, the TGI (HCT-15 colon) was greater than 100 µM and the GI50 (HOP-92 NSCLC) was greater than 10 µM. For the same compound, the TGI (HOP-92 NSCLC) was greater than 100 µM, the TGI (OVCAR-3 ovarian) was greater than 10 µM and the GI50 (K-562 leukemia) was greater than 100 µM. It also gave a TGI (K-562 leukemia) greater than 100 µM.

Compound `O=C(O)C/C=C/CC(=O)O` has a TGI (HL-60(TB) leukemia) greater than 100 µM, a TGI (KM12 colon) greater than 100 µM and a TGI (HCT-116 colon) greater than 100 µM. It also gave a TGI (HOP-62 NSCLC) greater than 100 µM, a TGI (HCT-15 colon) greater than 100 µM and a TGI (NCI/ADR-RES ovarian) greater than 100 µM. For the same compound, the TGI (OVCAR-3 ovarian) was greater than 100 µM and the TGI (K-562 leukemia) was greater than 100 µM.

For `Cc1c(C#N)c(=O)[nH]c(=O)n1CCN1CCN(C(=O)NCCCCCCNC(=O)N2CCN(CCn3c(C)c(C#N)c(=O)[nH]c3=O)CC2)CC1`, the TGI (HL-60(TB) leukemia) was greater than 100 µM, the TGI (HCT-116 colon) was greater than 100 µM and the TGI (HOP-62 NSCLC) was greater than 100 µM. It also gave a TGI (SF-539 CNS) greater than 100 µM, a TGI (HCT-15 colon) greater than 100 µM and a TGI (HOP-92 NSCLC) greater than 100 µM. For the same compound, the TGI (OVCAR-3 ovarian) was greater than 100 µM and the TGI (K-562 leukemia) was greater than 100 µM.

Compound `O=C1c2ccccc2-c2c1c1ccc([N+](=O)[O-])cc1c(=O)n2CCCBr` has a GI50 (HL-60(TB) leukemia) greater than 100 µM, a TGI (HL-60(TB) leukemia) greater than 100 µM and a GI50 (KM12 colon) greater than 100 µM. For the same compound, the TGI (KM12 colon) was greater than 100 µM, the GI50 (HCT-116 colon) was 3.43 µM and the TGI (HCT-116 colon) was greater than 100 µM. The GI50 (SF-539 CNS) was greater than 100 µM, the TGI (SF-539 CNS) was greater than 100 µM and the GI50 (HCT-15 colon) was greater than 100 µM. The TGI (HCT-15 colon) was greater than 100 µM, the GI50 (HOP-92 NSCLC) was greater than 100 µM and the TGI (HOP-92 NSCLC) was greater than 100 µM. For the same compound, the GI50 (OVCAR-3 ovarian) was greater than 100 µM, the TGI (OVCAR-3 ovarian) was greater than 100 µM and the GI50 (K-562 leukemia) was greater than 100 µM. It also gave a TGI (K-562 leukemia) greater than 100 µM.

For `COc1ccc(C2=C(Cl)c3cc(OC)c(OC)cc3C2Cl)cc1OC` (centres undefined), the TGI (HL-60(TB) leukemia) was 35.3 µM, the TGI (HCT-116 colon) was 30.3 µM and the TGI (HOP-62 NSCLC) was 36.6 µM. For the same compound, the TGI (HCT-15 colon) was 55.6 µM, the TGI (HOP-92 NSCLC) was 46.1 µM and the TGI (OVCAR-3 ovarian) was 28.4 µM. The TGI (K-562 leukemia) was 48.6 µM.

`c1ccc(SC(CCCCC(Sc2ccccc2)Sc2ccccc2)Sc2ccccc2)cc1` was tested, and the TGI (HL-60(TB) leukemia) was greater than 100 µM, the TGI (KM12 colon) was greater than 100 µM and the TGI (HCT-116 colon) was greater than 100 µM. It also gave a TGI (HOP-62 NSCLC) greater than 100 µM, a TGI (SF-539 CNS) greater than 100 µM and a TGI (HCT-15 colon) greater than 100 µM. It also gave a TGI (HOP-92 NSCLC) greater than 100 µM, a TGI (OVCAR-3 ovarian) greater than 100 µM and a TGI (K-562 leukemia) greater than 100 µM.

`COc1ccc(NC(=O)C/C(C)=N\N=C(N)N)c([N+](=O)[O-])c1` gave a TGI (HL-60(TB) leukemia) greater than 100 µM, a TGI (KM12 colon) greater than 100 µM and a TGI (HCT-116 colon) greater than 100 µM. It also gave a TGI (HOP-62 NSCLC) greater than 100 µM, a TGI (SF-539 CNS) greater than 100 µM and a TGI (HCT-15 colon) greater than 100 µM. For the same compound, the TGI (HOP-92 NSCLC) was greater than 100 µM, the TGI (OVCAR-3 ovarian) was greater than 100 µM and the TGI (K-562 leukemia) was greater than 100 µM.

Work on `Cc1cc2c(C)n(Cc3ccc(Cl)cc3Cl)nc2c(C#N)c1C` yielded a TGI (HL-60(TB) leukemia) greater than 100 µM, a TGI (KM12 colon) greater than 100 µM and a TGI (HCT-116 colon) greater than 100 µM. For the same compound, the TGI (HOP-62 NSCLC) was 49.7 µM, the TGI (SF-539 CNS) was greater than 62.5 µM and the TGI (HCT-15 colon) was greater than 100 µM. It also gave a TGI (HOP-92 NSCLC) of 36.9 µM, a TGI (OVCAR-3 ovarian) greater than 100 µM and a TGI (K-562 leukemia) greater than 100 µM.

`CCC1CN2CCc3cc(OC)c(OC)cc3C2CC1CC1c2cc(OC)c(OC)cc2CCN1C(=O)C1CCCN1C(=O)OCc1ccccc1` (centres undefined) gave a TGI (HL-60(TB) leukemia) of 28.9 µM, a TGI (KM12 colon) of 30.1 µM and a TGI (HCT-116 colon) of 25.8 µM. It also gave a TGI (HOP-62 NSCLC) of 31.8 µM, a TGI (SF-539 CNS) of 33 µM and a TGI (HCT-15 colon) of 29.9 µM. It also gave a TGI (HOP-92 NSCLC) of 22 µM, a TGI (OVCAR-3 ovarian) of 30.7 µM and a TGI (K-562 leukemia) of 36 µM.

`O=C(O)C1(P(=O)(O)O)CC1` was tested, and the TGI (HL-60(TB) leukemia) was greater than 100 µM, the TGI (KM12 colon) was greater than 100 µM and the TGI (HCT-116 colon) was greater than 100 µM. For the same compound, the TGI (HOP-62 NSCLC) was greater than 100 µM, the TGI (SF-539 CNS) was greater than 100 µM and the TGI (HCT-15 colon) was greater than 100 µM. For the same compound, the TGI (OVCAR-3 ovarian) was greater than 100 µM and the TGI (K-562 leukemia) was greater than 100 µM.

`CCOC(=O)C(=O)Nc1c(CC)cccc1C(C)C` was tested, and the TGI (KM12 colon) was greater than 100 µM, the TGI (HCT-116 colon) was greater than 100 µM and the TGI (HOP-62 NSCLC) was greater than 100 µM. For the same compound, the TGI (SF-539 CNS) was greater than 100 µM, the TGI (HCT-15 colon) was greater than 100 µM and the TGI (HOP-92 NSCLC) was greater than 100 µM. The TGI (OVCAR-3 ovarian) was greater than 100 µM.

With `C=C1COC(/C=C(\C)CC/C=C(\C)CCl)C1` (centres undefined) the TGI (HL-60(TB) leukemia) was greater than 100 µM, the TGI (KM12 colon) was greater than 100 µM and the TGI (HCT-116 colon) was greater than 100 µM. It also gave a TGI (HOP-62 NSCLC) greater than 100 µM, a TGI (SF-539 CNS) greater than 100 µM and a TGI (HCT-15 colon) greater than 100 µM. For the same compound, the TGI (HOP-92 NSCLC) was greater than 100 µM, the TGI (OVCAR-3 ovarian) was greater than 100 µM and the TGI (K-562 leukemia) was greater than 100 µM.

`Cc1ccc(-c2cc(-c3ccc(C)cc3)nc(NCCNc3ccnc4cc(Cl)ccc34)n2)cc1` was tested, and the GI50 (HL-60(TB) leukemia) was 2 µM, the TGI (HL-60(TB) leukemia) was 4.15 µM and the GI50 (KM12 colon) was 1.75 µM. For the same compound, the TGI (KM12 colon) was 3.38 µM, the GI50 (HCT-116 colon) was 1.6 µM and the TGI (HCT-116 colon) was 3.44 µM. It also gave a GI50 (HOP-62 NSCLC) of 1.89 µM, a TGI (HOP-62 NSCLC) of 3.8 µM and a GI50 (SF-539 CNS) of 1.91 µM. For the same compound, the TGI (SF-539 CNS) was 3.6 µM, the GI50 (HCT-15 colon) was 1.55 µM and the TGI (HCT-15 colon) was 3.16 µM. For the same compound, the GI50 (HOP-92 NSCLC) was 1.23 µM, the TGI (HOP-92 NSCLC) was 2.73 µM and the GI50 (OVCAR-3 ovarian) was 1.66 µM. For the same compound, the TGI (OVCAR-3 ovarian) was 3.15 µM, the GI50 (K-562 leukemia) was 1.82 µM and the TGI (K-562 leukemia) was 4.5 µM.

`O=C1C(=O)N(c2ccc(Cl)c(Cl)c2)C(=O)C(=O)C1c1nc2ccccc2s1` gave a TGI (HCT-116 colon) greater than 100 µM, a TGI (HOP-62 NSCLC) greater than 100 µM and a TGI (SF-539 CNS) greater than 100 µM. For the same compound, the TGI (HCT-15 colon) was greater than 100 µM, the TGI (HOP-92 NSCLC) was greater than 100 µM and the TGI (OVCAR-3 ovarian) was greater than 100 µM.
